# From PMC8401933 (Molecules, 2021)
# Columns and labels:
# Assay in all cases: KINOMEscan binding
# Conditions in all cases: read-out: Percent Control
# CHEK1 = biological target: T1, CHEK1 (Homo sapiens, UniProt O14757)
# T1 construct: purchased Eurofins DiscoverX KINOMEscan
# CDK11 = biological target: T2, CDK11 (Homo sapiens, UniProt Q9BWU1)
# T2 construct: purchased Eurofins DiscoverX KINOMEscan
# WNK1 = biological target: T3, WNK1 (Homo sapiens, UniProt Q9H4A3)
# T3 construct: purchased Eurofins DiscoverX KINOMEscan
# RIOK2 = biological target: T4, RIOK2 (Homo sapiens, UniProt Q9BVS4)
# T4 construct: purchased Eurofins DiscoverX KINOMEscan
# PIK3CD = biological target: T5, PIK3CD (Homo sapiens, UniProt O00329)
# T5 construct: purchased Eurofins DiscoverX KINOMEscan
# CAMKK1 = biological target: T6, CAMKK1 (Homo sapiens, UniProt Q8N5S9)
# T6 construct: purchased Eurofins DiscoverX KINOMEscan
# FAK = biological target: T7, FAK (Homo sapiens, UniProt Q05397)
# T7 construct: purchased Eurofins DiscoverX KINOMEscan
# CSF1R = biological target: T8, CSF1R (Homo sapiens, UniProt P07333)
# T8 construct: purchased Eurofins DiscoverX KINOMEscan
# SRPK2 = biological target: T9, SRPK2 (Homo sapiens, UniProt P78362)
# T9 construct: purchased Eurofins DiscoverX KINOMEscan
# T9 sequence (P78362 whole entry): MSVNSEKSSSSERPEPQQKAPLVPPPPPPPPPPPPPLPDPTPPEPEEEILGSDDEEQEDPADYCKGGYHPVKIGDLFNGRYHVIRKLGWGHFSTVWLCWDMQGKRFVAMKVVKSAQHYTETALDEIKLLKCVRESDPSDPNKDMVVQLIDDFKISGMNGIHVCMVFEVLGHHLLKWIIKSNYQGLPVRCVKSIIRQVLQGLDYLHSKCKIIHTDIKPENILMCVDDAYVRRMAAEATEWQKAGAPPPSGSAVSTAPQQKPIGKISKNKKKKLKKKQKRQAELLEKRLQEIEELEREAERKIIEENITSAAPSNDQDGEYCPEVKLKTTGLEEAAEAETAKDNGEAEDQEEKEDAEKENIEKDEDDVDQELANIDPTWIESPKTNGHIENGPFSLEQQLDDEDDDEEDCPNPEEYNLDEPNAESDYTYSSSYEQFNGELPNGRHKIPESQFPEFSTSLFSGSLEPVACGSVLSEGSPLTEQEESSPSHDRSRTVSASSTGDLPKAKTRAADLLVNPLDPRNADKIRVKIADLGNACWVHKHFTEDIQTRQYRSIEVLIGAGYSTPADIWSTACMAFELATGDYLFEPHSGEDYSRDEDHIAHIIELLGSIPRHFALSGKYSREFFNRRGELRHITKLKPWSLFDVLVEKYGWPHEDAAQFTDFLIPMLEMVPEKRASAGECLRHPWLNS
# ACVRL1 = biological target: T10, ACVRL1 (Homo sapiens, UniProt P37023)
# T10 construct: purchased Eurofins DiscoverX KINOMEscan
# GRK7 = biological target: T11, GRK7 (Homo sapiens, UniProt Q8WTQ7)
# T11 construct: purchased Eurofins DiscoverX KINOMEscan
# BLK = biological target: T12, BLK (Homo sapiens, UniProt P51451)
# T12 construct: purchased Eurofins DiscoverX KINOMEscan
# PKMYT1 = biological target: T13, PKMYT1 (Homo sapiens, UniProt Q99640)
# T13 construct: purchased Eurofins DiscoverX KINOMEscan
# T13 sequence (Q99640 whole entry): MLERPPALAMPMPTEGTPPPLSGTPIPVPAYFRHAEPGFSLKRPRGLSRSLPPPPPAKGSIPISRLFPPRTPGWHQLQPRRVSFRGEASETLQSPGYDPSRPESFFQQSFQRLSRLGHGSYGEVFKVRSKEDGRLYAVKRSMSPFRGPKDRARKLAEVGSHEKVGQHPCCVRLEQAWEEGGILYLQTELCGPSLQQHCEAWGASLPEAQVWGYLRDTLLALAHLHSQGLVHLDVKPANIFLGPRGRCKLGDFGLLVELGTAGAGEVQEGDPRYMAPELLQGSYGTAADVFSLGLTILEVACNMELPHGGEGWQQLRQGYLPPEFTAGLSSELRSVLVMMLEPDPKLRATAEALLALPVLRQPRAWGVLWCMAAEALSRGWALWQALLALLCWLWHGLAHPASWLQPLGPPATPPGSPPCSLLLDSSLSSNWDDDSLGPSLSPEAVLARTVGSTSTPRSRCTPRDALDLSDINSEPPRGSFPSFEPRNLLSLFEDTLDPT
# TRKA = biological target: T14, TRKA (Homo sapiens, UniProt P04629)
# T14 construct: purchased Eurofins DiscoverX KINOMEscan
# MEK2 = biological target: T15, MEK2 (Homo sapiens, UniProt P36507)
# T15 construct: purchased Eurofins DiscoverX KINOMEscan
# PIP5K2B = biological target: T16, PIP5K2B (Homo sapiens, UniProt P78356)
# T16 construct: purchased Eurofins DiscoverX KINOMEscan
# PIK3CA(E545K) = biological target: T17, PIK3CA(E545K) (Homo sapiens, UniProt P42336, E545K)
# T17 construct: purchased Eurofins DiscoverX KINOMEscan
# BRSK1 = biological target: T18, BRSK1 (Homo sapiens, UniProt Q8TDC3)
# T18 construct: purchased Eurofins DiscoverX KINOMEscan
# T18 sequence (Q8TDC3 whole entry): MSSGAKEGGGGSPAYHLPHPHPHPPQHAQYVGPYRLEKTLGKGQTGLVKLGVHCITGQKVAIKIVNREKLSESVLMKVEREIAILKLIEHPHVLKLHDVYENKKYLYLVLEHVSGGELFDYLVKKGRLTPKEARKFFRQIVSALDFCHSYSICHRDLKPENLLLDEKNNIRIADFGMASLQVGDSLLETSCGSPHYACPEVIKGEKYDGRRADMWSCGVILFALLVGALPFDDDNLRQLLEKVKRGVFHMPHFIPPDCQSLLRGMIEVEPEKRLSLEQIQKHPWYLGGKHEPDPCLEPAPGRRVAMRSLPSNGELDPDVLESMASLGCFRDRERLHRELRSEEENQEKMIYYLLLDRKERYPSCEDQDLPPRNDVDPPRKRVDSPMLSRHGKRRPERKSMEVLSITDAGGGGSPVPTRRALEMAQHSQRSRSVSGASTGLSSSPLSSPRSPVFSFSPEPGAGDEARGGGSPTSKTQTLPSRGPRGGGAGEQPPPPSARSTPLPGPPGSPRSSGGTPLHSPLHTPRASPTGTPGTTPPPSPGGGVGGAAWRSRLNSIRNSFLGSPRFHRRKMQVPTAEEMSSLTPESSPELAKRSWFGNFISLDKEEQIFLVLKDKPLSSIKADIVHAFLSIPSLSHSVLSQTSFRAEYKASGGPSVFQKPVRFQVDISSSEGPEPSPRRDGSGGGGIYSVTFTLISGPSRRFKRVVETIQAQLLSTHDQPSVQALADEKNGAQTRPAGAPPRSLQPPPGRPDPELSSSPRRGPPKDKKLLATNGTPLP
# ERK1 = biological target: T19, ERK1 (Homo sapiens, UniProt P27361)
# T19 construct: purchased Eurofins DiscoverX KINOMEscan
# HIPK1 = biological target: T20, HIPK1 (Homo sapiens, UniProt Q86Z02)
# T20 construct: purchased Eurofins DiscoverX KINOMEscan
# ERN1 = biological target: T21, ERN1 (Homo sapiens, UniProt O75460)
# T21 construct: purchased Eurofins DiscoverX KINOMEscan
# T21 sequence (O75460 19-977): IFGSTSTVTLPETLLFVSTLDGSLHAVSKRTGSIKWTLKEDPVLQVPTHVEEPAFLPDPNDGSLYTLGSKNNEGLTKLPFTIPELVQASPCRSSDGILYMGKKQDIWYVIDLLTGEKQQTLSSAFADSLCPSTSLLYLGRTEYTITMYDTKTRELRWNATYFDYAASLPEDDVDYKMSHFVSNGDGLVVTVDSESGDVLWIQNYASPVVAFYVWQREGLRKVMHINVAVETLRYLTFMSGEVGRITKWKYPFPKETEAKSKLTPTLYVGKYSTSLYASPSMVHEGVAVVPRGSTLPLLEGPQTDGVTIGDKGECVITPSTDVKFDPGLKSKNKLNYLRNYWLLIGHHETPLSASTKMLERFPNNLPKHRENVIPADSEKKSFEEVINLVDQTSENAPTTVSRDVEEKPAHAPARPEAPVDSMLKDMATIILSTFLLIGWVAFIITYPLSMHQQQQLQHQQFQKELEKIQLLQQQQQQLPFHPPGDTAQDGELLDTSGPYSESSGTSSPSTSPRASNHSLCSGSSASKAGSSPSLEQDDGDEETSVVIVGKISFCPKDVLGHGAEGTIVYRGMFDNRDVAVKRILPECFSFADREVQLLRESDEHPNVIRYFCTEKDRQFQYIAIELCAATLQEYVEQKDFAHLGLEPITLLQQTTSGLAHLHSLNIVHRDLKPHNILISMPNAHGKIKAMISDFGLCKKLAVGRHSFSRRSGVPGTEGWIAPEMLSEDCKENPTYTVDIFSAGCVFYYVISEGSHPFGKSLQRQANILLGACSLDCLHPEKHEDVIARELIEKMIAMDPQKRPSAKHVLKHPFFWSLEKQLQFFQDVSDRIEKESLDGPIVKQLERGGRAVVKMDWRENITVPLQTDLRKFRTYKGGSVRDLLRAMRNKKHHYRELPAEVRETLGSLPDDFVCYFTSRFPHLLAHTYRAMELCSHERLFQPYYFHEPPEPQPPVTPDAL
# CAMK1B = biological target: T22, CAMK1B (Homo sapiens, UniProt Q6P2M8)
# T22 construct: purchased Eurofins DiscoverX KINOMEscan
# SgK110 = biological target: T23, SgK110 (Homo sapiens, UniProt P0C264)
# T23 construct: purchased Eurofins DiscoverX KINOMEscan
# [1] = biological target: T24, RPS6KA5(Kin.Dom.1-N-terminal) (Homo sapiens, UniProt O75582)
# T24 construct: RPS6KA5(Kin.Dom.1-N-terminal); purchased Eurofins DiscoverX KINOMEscan
# CDKL5 = biological target: T25, CDKL5 (Homo sapiens, UniProt O76039)
# T25 construct: purchased Eurofins DiscoverX KINOMEscan
# CSNK2A2 = biological target: T26, CSNK2A2 (Homo sapiens, UniProt P19784)
# T26 construct: purchased Eurofins DiscoverX KINOMEscan
# MRCKB = biological target: T27, MRCKB (Homo sapiens, UniProt Q9Y5S2)
# T27 construct: purchased Eurofins DiscoverX KINOMEscan
# PKNB(M.tuberculosis) = biological target: T28, PKNB(M.tuberculosis) (Mycobacterium tuberculosis, UniProt P9WI81)
# T28 construct: purchased Eurofins DiscoverX KINOMEscan
# HIPK2 = biological target: T29, HIPK2 (Homo sapiens, UniProt Q9H2X6)
# T29 construct: purchased Eurofins DiscoverX KINOMEscan
# KIT(V559D,V654A) = biological target: T30, KIT(V559D,V654A) (Homo sapiens, UniProt P10721, V559D/V654A)
# T30 construct: purchased Eurofins DiscoverX KINOMEscan
# CDC2L1 = biological target: T31, CDC2L1 (Homo sapiens, UniProt P21127)
# T31 construct: purchased Eurofins DiscoverX KINOMEscan
# DMPK = biological target: T32, DMPK (Homo sapiens, UniProt Q09013)
# T32 construct: purchased Eurofins DiscoverX KINOMEscan
# KIT(L576P) = biological target: T33, KIT(L576P) (Homo sapiens, UniProt P10721, L576P)
# T33 construct: purchased Eurofins DiscoverX KINOMEscan
# MAP3K3 = biological target: T34, MAP3K3 (Homo sapiens, UniProt Q99759)
# T34 construct: purchased Eurofins DiscoverX KINOMEscan
# STK35 = biological target: T35, STK35 (Homo sapiens, UniProt Q8TDR2)
# T35 construct: purchased Eurofins DiscoverX KINOMEscan
# T35 sequence (Q8TDR2 whole entry): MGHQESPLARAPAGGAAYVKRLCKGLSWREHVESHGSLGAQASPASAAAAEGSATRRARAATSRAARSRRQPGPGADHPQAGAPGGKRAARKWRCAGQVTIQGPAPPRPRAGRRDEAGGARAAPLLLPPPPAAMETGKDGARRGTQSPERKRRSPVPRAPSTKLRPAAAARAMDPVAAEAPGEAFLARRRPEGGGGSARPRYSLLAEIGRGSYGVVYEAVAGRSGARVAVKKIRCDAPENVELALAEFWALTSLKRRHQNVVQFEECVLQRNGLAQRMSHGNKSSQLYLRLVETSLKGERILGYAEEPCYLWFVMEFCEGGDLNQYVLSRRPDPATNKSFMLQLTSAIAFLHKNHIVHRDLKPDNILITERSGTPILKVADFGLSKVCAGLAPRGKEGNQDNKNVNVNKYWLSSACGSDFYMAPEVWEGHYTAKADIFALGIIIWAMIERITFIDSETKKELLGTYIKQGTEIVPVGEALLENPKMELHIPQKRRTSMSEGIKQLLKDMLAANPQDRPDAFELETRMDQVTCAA
# [2] = biological target: T36, ABL1(F317I)-phosphorylated (Homo sapiens, UniProt P00519, F317I)
# T36 construct: purchased Eurofins DiscoverX KINOMEscan
# PAK1 = biological target: T37, PAK1 (Homo sapiens, UniProt Q13153)
# T37 construct: purchased Eurofins DiscoverX KINOMEscan
# GAK = biological target: T38, GAK (Homo sapiens, UniProt O14976)
# T38 construct: purchased Eurofins DiscoverX KINOMEscan
# DDR2 = biological target: T39, DDR2 (Homo sapiens, UniProt Q16832)
# T39 construct: purchased Eurofins DiscoverX KINOMEscan
# DAPK3 = biological target: T40, DAPK3 (Homo sapiens, UniProt O43293)
# T40 construct: purchased Eurofins DiscoverX KINOMEscan
# PKN1 = biological target: T41, PKN1 (Homo sapiens, UniProt Q16512)
# T41 construct: purchased Eurofins DiscoverX KINOMEscan
# STK36 = biological target: T42, STK36 (Homo sapiens, UniProt Q9NRP7)
# T42 construct: purchased Eurofins DiscoverX KINOMEscan
# T42 sequence (Q9NRP7 whole entry): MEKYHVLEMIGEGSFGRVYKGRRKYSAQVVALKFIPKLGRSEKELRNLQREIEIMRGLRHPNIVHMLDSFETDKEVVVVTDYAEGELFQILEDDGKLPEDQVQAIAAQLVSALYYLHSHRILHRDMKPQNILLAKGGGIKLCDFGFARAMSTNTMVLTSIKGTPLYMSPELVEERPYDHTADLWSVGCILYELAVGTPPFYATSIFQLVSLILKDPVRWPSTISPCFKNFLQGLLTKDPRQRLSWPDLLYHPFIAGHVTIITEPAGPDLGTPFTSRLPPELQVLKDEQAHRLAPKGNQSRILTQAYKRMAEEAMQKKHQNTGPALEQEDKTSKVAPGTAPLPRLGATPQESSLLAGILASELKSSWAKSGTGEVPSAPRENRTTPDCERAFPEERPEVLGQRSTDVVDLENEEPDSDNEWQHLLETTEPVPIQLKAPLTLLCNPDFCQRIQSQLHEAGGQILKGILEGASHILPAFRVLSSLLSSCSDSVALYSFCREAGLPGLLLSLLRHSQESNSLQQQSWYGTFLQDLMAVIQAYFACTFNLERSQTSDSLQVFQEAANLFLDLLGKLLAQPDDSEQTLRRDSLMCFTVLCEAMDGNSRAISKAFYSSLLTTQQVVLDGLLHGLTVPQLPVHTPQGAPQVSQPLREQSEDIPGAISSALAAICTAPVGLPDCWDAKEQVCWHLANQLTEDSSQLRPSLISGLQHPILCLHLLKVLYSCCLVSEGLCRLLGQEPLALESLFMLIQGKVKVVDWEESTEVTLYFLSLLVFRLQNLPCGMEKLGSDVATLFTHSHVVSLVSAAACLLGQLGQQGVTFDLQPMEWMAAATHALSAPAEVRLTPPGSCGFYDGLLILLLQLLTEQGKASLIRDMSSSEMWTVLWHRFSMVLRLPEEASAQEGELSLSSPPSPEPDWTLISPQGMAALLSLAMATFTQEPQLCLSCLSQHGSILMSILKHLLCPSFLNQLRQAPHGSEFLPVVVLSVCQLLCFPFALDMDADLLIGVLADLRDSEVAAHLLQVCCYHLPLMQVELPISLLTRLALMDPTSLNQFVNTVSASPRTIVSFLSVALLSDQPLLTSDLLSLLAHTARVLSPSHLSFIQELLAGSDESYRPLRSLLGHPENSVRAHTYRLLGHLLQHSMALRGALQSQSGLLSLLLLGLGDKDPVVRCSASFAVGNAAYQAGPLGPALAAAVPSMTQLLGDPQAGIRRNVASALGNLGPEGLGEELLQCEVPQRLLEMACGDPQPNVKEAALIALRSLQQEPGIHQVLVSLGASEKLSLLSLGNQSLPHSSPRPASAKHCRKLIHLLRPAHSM
# MYLK = biological target: T43, MYLK (Homo sapiens, UniProt Q15746)
# T43 construct: purchased Eurofins DiscoverX KINOMEscan
# MEK6 = biological target: T44, MEK6 (Homo sapiens, UniProt P52564)
# T44 construct: purchased Eurofins DiscoverX KINOMEscan
smiles,measurement,setting,value
"CC(C)NC(=O)COc1cccc(-c2nc(Nc3ccc4[nH]ncc4c3)c3ccccc3n2)c1 [KD025, 2-(3-(4-((1H-indazol-5-yl)amino)quinazolin-2-yl)phenoxy)-N-isopropylacetamide]",remaining binding at 10 µM,CHEK1,100%
same,remaining binding at 10 µM,CDK11,99%
same,remaining binding at 10 µM,WNK1,94%
same,remaining binding at 10 µM,RIOK2,60%
same,remaining binding at 10 µM,PIK3CD,41%
same,remaining binding at 10 µM,CAMKK1,94%
same,remaining binding at 10 µM,FAK,92%
same,remaining binding at 10 µM,CSF1R,99%
same,remaining binding at 10 µM,SRPK2,66%
same,remaining binding at 10 µM,ACVRL1,76%
same,remaining binding at 10 µM,GRK7,80%
same,remaining binding at 10 µM,BLK,11%
same,remaining binding at 10 µM,PKMYT1,83%
same,remaining binding at 10 µM,TRKA,61%
same,remaining binding at 10 µM,MEK2,86%
same,remaining binding at 10 µM,PIP5K2B,9.7%
same,remaining binding at 10 µM,PIK3CA(E545K),94%
same,remaining binding at 10 µM,BRSK1,93%
same,remaining binding at 10 µM,ERK1,63%
same,remaining binding at 10 µM,HIPK1,58%
same,remaining binding at 10 µM,ERN1,98%
same,remaining binding at 10 µM,CAMK1B,97%
same,remaining binding at 10 µM,SgK110,100%
same,remaining binding at 10 µM,[1],100%
same,remaining binding at 10 µM,CDKL5,100%
same,remaining binding at 10 µM,CSNK2A2,0.5%
same,remaining binding at 10 µM,MRCKB,1%
same,remaining binding at 10 µM,PKNB(M.tuberculosis),83%
same,remaining binding at 10 µM,HIPK2,100%
same,remaining binding at 10 µM,"KIT(V559D,V654A)",92%
same,remaining binding at 10 µM,CDC2L1,98%
same,remaining binding at 10 µM,DMPK,97%
same,remaining binding at 10 µM,KIT(L576P),74%
same,remaining binding at 10 µM,MAP3K3,80%
same,remaining binding at 10 µM,STK35,84%
same,remaining binding at 10 µM,[2],93%
same,remaining binding at 10 µM,PAK1,56%
same,remaining binding at 10 µM,GAK,10%
same,remaining binding at 10 µM,DDR2,45%
same,remaining binding at 10 µM,DAPK3,35%
same,remaining binding at 10 µM,PKN1,97%
same,remaining binding at 10 µM,STK36,91%
same,remaining binding at 10 µM,MYLK,66%
same,remaining binding at 10 µM,MEK6,87%
